These results are taken from US20230076646A1, “HERBICIDE COMBINATIONS COMPRISING GLUFOSINATE AND SULFENTRAZONE” (BASF SE, priority 2020, published 2023).

Molecules are shown by their SMILES.

Holding throughout (assay): Greenhouse post-emergence weed control, percent injury vs untreated control
Common to all, as to conditions: 504 h

Assay [1] concerns Amaranthus tamariscinus (AMATA). It counts as in vivo. On the procedure: (§1) Glufosinate was used as a commercial SL formulation containing 280 g ai/l of glufosinate (Liberty 280 SL, BASF). While the PPO herbicide Spartan containing 480 g ai/l sulfentrazone was used (Spartan 480 SC, FMC) formulation. • The evaluation for plant injury or damage caused by the chemical compositions was carried out using a scale from 0-100% when compared with the untreated control plants. Here, 0 means no damage and 100 means complete destruction of the plants.
(§2) 22., E=X+Y−(X*Y/100), where • X=effect in percent using herbicide A at an application rate of a; • Y=effect in percent using herbicide B at an application rate of b; • E=expected effect (in %) of A+B at application rates a+b.
(§3) The value E corresponds to the effect (plant damage or injury) which is to be expected if the activity of the individual compounds is just additive. If the observed effect is higher than the value E calculated according to Colby, a synergistic effect is present.
(§4) Seedlings of Palmer amaranth (Amaranthus palmeri; AMAPA), common waterhemp (Amaranthuis tameriscinus; AMATA), and barnyardgrass (Echinochloa crus-galli; ECHCG) were treated with postemergence applications of either glufosinate at 246 g ai/ha, sulfentrazone at 4.2 or 42 g ai/ha, or the combination of glufosinate (246 g ai/ha) and sulfentrazone (4.2, 42 g ai/ha), respectively, when they were 5-10 cm in height. All glufosinate treatments contained 1% (w/v) ammonium sulfate and solo sulfentrazone treatments contained 1% (v/v) MSO surfactant. Plants were placed in a completely randomized design with four replications per treatment. Percent injury data was collected 21 days after treatment (DAT).

Assay [2] deals with Echinochloa crus-galli (ECHCG). The format is in vivo. On the procedure:
as §1, §2, §3, §4

For assay [3], the system named is Amaranthus Palmerii (AMAPA). The format is in vivo, Amaranthus palmeri. As to the method:
as §1, §2, §3
Seedlings of Palmer amaranth (Amaranthus palmeri; AMAPA), common waterhemp (Amaranthuis tameriscinus; AMATA), and barnyardgrass (Echinochloa crus-galli; ECHCG) were treated with postemergence applications of either glufosinate at 246 g ai/ha, sulfentrazone at 4.2 or 42 g ai/ha, or the combination of glufosinate (246 g ai/ha) and sulfentrazone (4.2, 42 g ai/ha), respectively, when they were 5-10 cm in height. […]

The mark [4] stands for this setting: read-out: Solo Glufosinate (246 g ai/ha) % activity.

For `CP(=O)(O)CCC(N)C(=O)O` (racemic) [Glufosinate, (2RS)-2-amino-4-[hydroxy(methyl)phosphinoyl]butyric acid], the results for the inhibition at 246 g/ha in assay [1] (setting [4]), in assay [2] (setting [4]) and in assay [3] (setting [4]) were 79%, 57% and 79%, respectively.
Turning to `Cc1nn(-c2cc(NS(C)(=O)=O)c(Cl)cc2Cl)c(=O)n1C(F)F` [Sulfentrazone, sulfentrazone], the inhibition at 42 g/ha turned out to be 33% in assay [1] (AMATA, 42 g ai/ha, 1% (v/v) MSO, 21 DAT, read-out: Solo Sulfentrazone (42 g ai/ha) % activity) and 23% in assay [2] (ECHCG, 42 g ai/ha, 1% (v/v) MSO, 21 DAT, read-out: Solo Sulfentrazone (42 g ai/ha) % activity). Also, the inhibition at 4.2 g/ha in assay [3] (AMAPA, 4.2 g ai/ha, 1% (v/v) MSO, 21 DAT, 0 = no damage, 100 = complete destruction, read-out: Solo Sulfentrazone (4.2 g ai/ha) % activity) was determined as 20%.
